Values quoted from earlier work, collected in US7026311B2, “Dibenzodiazepine derivatives, their preparation and use” (Abbott GmbH & Co., KG, priority 2002, dated 2006).

Settings: S. Cuzzocrea et al., Br. J. Pharmacol. 1997

For `NC(=O)c1cccc(N)c1` [Example 3-aminobenzamide, 3-aminobenzamide], which “effects in a model of circulatory shock” value is on record?
Its value is “protective effects”.
